Measurements as given in patent US20150164791A1, “CORNEAL SHAPING” (priority 2005, published 2015).

Key:
MMPs 1, 2 and 8 = conditions: rat corneas; cited from earlier work
MMP's 1, 2, 8 and 9 = conditions: topical; rat cornea; animals with epithelial defects and with intact epithelium; cited from earlier work
[1] = in vivo; cited from earlier work
[2] = test system: matrix metalloproteinases; experiment: Activation of matrix metalloproteinases by gatifloxacin (established by the inventor)

For `O=C(O)Cc1ccccc1Nc1c(Cl)cccc1Cl` [Diclofenac], the “expression of MMPs 1, 2 and 8” value (MMPs 1, 2 and 8) is given as “induce expression”.

For `O=C(O)c1cn(C2CC2)c2cc(N3CCNCC3)c(F)cc2c1=O` [ciprofloxacin], the “MMP levels in corneal epithelium and anterior stroma” value (MMP's 1, 2, 8 and 9) is listed as “increased”.

In the case of `C[C@H]1c2cccc(O)c2C(O)=C2C(=O)[C@]3(O)C(O)=C(C(N)=O)C(=O)[C@@H](N(C)C)[C@@H]3[C@@H](O)[C@@H]21` [doxycyline, doxycycline], the corneal penetration [1] is given as “penetrate the cornea well” and the tolerability [1] is given as “well tolerated”.

With `COc1c(N2CCNC(C)C2)c(F)cc2c(=O)c(C(=O)O)cn(C3CC3)c12` (stereo not drawn) [gatifloxacin] the “activation of matrix metalloproteinases” value [2] was “capable of activating matrix metalloproteinases”.

For `O=C(c1ccccc1)c1ccc2n1CCC2C(=O)O` (stereo not drawn) [ketorolac], the “expression of MMPs 1, 2 and 8” value (MMPs 1, 2 and 8) is given as “induce expression”.
